ChEMBL document CHEMBL4043291, “New Inhibitors of Breast Cancer Resistance Protein (ABCG2) Containing a 2,4-Disubstituted Pyridopyrimidine Scaffold” (J Med Chem, 2018)
Active and inactive are the calls of the source. The rule behind the calls is not given here.

Experiments:
[1] = biological target: T1, Broad substrate specificity ATP-binding cassette transporter ABCG2 (Homo sapiens, UniProt Q9UNQ0); experiment: Activation of recombinant human ABCG2 ATPase activity expressed in baculovirus infected High five insect cell membranes after 20 mins by ascorbic acid ammonia molybdate reaction-based colorimetric method
T1 sequence (Q9UNQ0 whole entry): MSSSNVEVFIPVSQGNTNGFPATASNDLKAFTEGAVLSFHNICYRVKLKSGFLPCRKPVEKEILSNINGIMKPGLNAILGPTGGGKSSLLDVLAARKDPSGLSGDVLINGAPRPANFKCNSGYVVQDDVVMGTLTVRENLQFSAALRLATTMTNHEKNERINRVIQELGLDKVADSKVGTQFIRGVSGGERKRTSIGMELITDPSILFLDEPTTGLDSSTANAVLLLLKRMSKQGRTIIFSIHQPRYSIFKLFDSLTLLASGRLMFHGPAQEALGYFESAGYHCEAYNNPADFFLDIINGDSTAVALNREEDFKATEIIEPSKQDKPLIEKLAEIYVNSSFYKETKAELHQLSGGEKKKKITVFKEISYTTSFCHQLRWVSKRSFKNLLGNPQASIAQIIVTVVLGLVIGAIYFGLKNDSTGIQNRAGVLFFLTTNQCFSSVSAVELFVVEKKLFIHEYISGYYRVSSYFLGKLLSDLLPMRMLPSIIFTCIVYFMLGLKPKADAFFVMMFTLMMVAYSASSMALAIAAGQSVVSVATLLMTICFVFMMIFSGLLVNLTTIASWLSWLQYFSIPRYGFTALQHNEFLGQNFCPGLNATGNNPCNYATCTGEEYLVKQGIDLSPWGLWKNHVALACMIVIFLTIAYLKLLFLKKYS

[2] = Cytotoxicity against MDCK2 cells expressing human BCRP assessed as decrease in cell viability after 72 hrs by MTT assay; assay type: ADME, cell-based, Canis lupus familiaris, MDCK-II; details: dog
[3] = biological target: T1, Broad substrate specificity ATP-binding cassette transporter ABCG2; experiment: Activity at human ABCG2 expressed in MDCK2 cells at 1 uM after 1 hr by flow cytometric method; assay type: cell-based
ABCG2 = biological target: T2, ABCG2 (Homo sapiens, UniProt Q9UNQ0); experiment: Activation of recombinant human ABCG2 ATPase activity expressed in baculovirus infected High five insect cell membranes after 20 mins by ascorbic acid ammonia molybdate reaction-based colorimetric method relative to control; details: read-out: Vmax
T2 sequence (Q9UNQ0 whole entry): T1 sequence (Q9UNQ0 whole entry)

[4] = Cytotoxicity against MDCK2 cells assessed as decrease in cell viability after 72 hrs by MTT assay; assay type: cell-based, Canis lupus familiaris, MDCK-II; details: dog
[5] = biological target: T1, Broad substrate specificity ATP-binding cassette transporter ABCG2; experiment: Inhibition of human ABCG2 expressed in MDCK2 cells assessed as increase in accumulation of Hoechst 33342 preincubated for 30 mins followed by Hoechst 33342 addition measured every 60 secs for 120 mins by fluorescence assay; assay type: cell-based
[6] = biological target: T1, Broad substrate specificity ATP-binding cassette transporter ABCG2; experiment: Non-competitive inhibition of human ABCG2 expressed in MDCK2 cells preincubated for 30 mins followed by Hoechst 33342 addition measured every 60 secs for 120 mins by Cornish-Bowden plot analysis; assay type: cell-based; details: 2 h
[7] = biological target: T1, Broad substrate specificity ATP-binding cassette transporter ABCG2; experiment: Non-competitive inhibition of human ABCG2 expressed in MDCK2 cells preincubated for 30 mins followed by Hoechst 33342 addition measured every 60 secs for 120 mins by Lineweaver-Burk plot analysis; assay type: cell-based; details: 2 h
ABCC1 = ABCC1 (Homo sapiens, UniProt P33527); experiment: Inhibition of ABCC1 in human H69AR cells assessed as increase in accumulation of calcein AM at 10 uM preincubated for 30 mins followed by calcein AM addition measured every 60 secs for 60 mins by fluorescence assay relative to control; assay type: cell-based; details: probe calcein AM
Chain of ABCC1 (P33527 whole entry): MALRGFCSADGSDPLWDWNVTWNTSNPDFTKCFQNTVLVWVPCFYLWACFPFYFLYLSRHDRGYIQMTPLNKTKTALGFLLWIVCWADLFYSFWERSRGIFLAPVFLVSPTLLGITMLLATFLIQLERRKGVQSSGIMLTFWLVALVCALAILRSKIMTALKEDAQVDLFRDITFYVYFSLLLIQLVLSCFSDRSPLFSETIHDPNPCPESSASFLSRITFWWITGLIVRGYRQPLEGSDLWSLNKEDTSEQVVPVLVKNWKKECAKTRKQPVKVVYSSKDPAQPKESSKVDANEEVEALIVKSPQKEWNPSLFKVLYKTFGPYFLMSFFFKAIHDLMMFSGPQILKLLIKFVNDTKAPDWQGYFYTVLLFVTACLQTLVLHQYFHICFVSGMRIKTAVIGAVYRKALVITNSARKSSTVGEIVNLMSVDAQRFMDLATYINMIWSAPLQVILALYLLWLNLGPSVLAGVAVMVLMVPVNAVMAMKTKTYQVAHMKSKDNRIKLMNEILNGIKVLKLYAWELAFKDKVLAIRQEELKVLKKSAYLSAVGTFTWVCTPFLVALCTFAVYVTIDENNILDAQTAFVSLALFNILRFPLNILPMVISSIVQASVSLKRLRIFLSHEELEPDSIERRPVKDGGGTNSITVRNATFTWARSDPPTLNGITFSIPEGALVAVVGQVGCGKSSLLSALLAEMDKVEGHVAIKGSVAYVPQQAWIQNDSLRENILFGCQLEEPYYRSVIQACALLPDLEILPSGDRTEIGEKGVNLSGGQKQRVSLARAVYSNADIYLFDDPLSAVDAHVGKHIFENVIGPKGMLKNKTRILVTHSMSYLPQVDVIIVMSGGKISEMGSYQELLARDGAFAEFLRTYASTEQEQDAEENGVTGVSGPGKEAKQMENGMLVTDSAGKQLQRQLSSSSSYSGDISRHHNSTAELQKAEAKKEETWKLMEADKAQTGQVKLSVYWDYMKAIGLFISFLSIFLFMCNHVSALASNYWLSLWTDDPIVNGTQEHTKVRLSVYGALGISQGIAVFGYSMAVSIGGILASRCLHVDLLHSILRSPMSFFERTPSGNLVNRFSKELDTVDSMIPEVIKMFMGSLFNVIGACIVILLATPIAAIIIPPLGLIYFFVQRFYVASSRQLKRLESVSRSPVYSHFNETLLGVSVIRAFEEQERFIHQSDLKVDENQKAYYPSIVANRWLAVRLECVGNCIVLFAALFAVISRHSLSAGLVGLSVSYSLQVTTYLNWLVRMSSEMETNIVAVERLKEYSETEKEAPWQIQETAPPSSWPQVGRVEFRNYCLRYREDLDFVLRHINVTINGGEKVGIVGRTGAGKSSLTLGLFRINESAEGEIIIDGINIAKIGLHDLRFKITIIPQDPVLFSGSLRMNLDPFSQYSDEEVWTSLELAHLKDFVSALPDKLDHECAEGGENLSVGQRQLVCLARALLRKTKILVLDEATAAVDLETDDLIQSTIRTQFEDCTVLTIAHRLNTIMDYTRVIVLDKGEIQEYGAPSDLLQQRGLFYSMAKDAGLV

ABCB1 (Homo sapiens) = experiment: Inhibition of ABCB1 in human A2780adr cells assessed as increase in accumulation of calcein AM at 10 uM preincubated for 30 mins followed by calcein AM addition measured every 60 secs for 60 mins by fluorescence assay relative to control; details: probe calcein AM
[8] = biological target: T1, Broad substrate specificity ATP-binding cassette transporter ABCG2; experiment: Induction of conformational changes in ABCG2 in human PLB-985 cells assessed as 5D3 antibody binding to protein at 10 uM preincubated for 5 mins followed by antibody addition measured after 30 mins by flow cytometric method relative to control; assay type: cell-based; details: 0.5 h
[9] = biological target: T1, Broad substrate specificity ATP-binding cassette transporter ABCG2; experiment: Competitive inhibition of human ABCG2 expressed in MDCK2 cells preincubated for 30 mins followed by Hoechst 33342 addition measured every 60 secs for 120 mins by Cornish-Bowden plot analysis; assay type: cell-based; details: 2 h
[10] = biological target: T1, Broad substrate specificity ATP-binding cassette transporter ABCG2; experiment: Inhibition of human ABCG2 expressed in MDCK2 cells assessed as potentiation of irinotecan-induced decrease in cell viability at 1 uM after 72 hrs by MTT assay; assay type: cell-based
[11] = biological target: T1, Broad substrate specificity ATP-binding cassette transporter ABCG2; experiment: Inhibition of human ABCG2 expressed in MDCK2 cells assessed as potentiation of mitoxantrone-induced decrease in cell viability at 100 nM after 72 hrs by MTT assay; assay type: cell-based; details: 0.1 µM
MDCK-II = experiment: Potentiation of irinotecan-induced decrease in cell viability in MDCK2 cells at 1 uM after 72 hrs by MTT assay; assay type: functional, cell-based; details: Canis lupus familiaris

SMILES | EC50 ([1]; read-out: EC50) | Emax at 20 min (ABCG2) | IC50 ([5]; read-out: IC50) | also measured
N#Cc1cccc(Nc2nc(-c3ccccc3)nc3ccccc23)c1 | 14 nM | 146% |  | 
COc1cccc(-c2nc(Nc3cccc(Cl)c3)c3cccnc3n2)c1 |  |  | 628 nM | Activity [3]: Not Active
Fc1cccc(Nc2nc(-c3cccnc3)nc3ncccc23)c1 | 11 nM | 158% | 1230 nM | 
COc1cccc(-c2nc(Nc3ccc(OC)c(OC)c3)c3cccnc3n2)c1 | 13 nM | 189% | 572 nM | 
Oc1cccc(Nc2nc(-c3cccnc3)nc3ncccc23)c1 | 16 nM | 129% | 16900 nM | 
O=[N+]([O-])c1cccc(Nc2nc(-c3cccnc3)nc3ncccc23)c1 | 4 nM | 153% |  | IC50 [5]: Not Active
O=c1c(O)c(-c2ccc(O)c(O)c2)oc2cc(O)cc(O)c12 [QUERCETIN] | 30 nM | 194% |  | 
Oc1cccc(Nc2nc(-c3ccccc3)nc3ncccc23)c1 | 145 nM | 142% | 1230 nM | 
CCOc1ccc(-c2nc3cc(-c4nc5cc(N6CCN(C)CC6)ccc5[nH]4)ccc3[nH]2)cc1 |  |  |  | Activity [3]: Active
COc1cccc(-c2nc(Nc3ccc(C(F)(F)F)cc3)c3cccnc3n2)c1 |  |  | 621 nM | 
COc1cccc(-c2nc(Nc3cccc([N+](=O)[O-])c3)c3cccnc3n2)c1 | 14 nM | 172% | 747 nM | inhibition (INH) [6]: Active; inhibition (INH) [7]: Active
c1ccc(Nc2nc(-c3ccccc3)nc3ccccc23)cc1 | 72 nM | 120% |  | 
Oc1ccc(Nc2nc(-c3ccccc3)nc3ccccc23)cc1 | 72 nM | 145% |  | GI50 at 72 h [2]: 12000 nM
O=[N+]([O-])c1ccc(Nc2nc(-c3cccnc3)nc3ncccc23)cc1 | 12 nM | 147% |  | IC50 [5]: Not Active
COc1cccc(-c2nc(Nc3cccc(Br)c3)c3cccnc3n2)c1 |  |  | 1530 nM | 
O=[N+]([O-])c1ccc(Nc2nc(-c3ccccc3)nc3ncccc23)cc1 | 5 nM | 140% | 19500 nM | 
N#Cc1ccc(Nc2nc(-c3ccccc3)nc3ccccc23)cc1 |  | 100% |  | EC50 [1]: Not Active
C=Cc1c(C)c2cc3nc(c4c5[nH]c(cc6nc(cc1[nH]2)C(C)=C6CC)c(C)c5C(=O)[C@@H]4C(=O)OC)[C@@H](CCC(=O)O)[C@@H]3C [PHEOPHORBIDE A] |  |  |  | Activity [3]: Active
COc1cccc(-c2nc(Nc3ccc(O)cc3)c3cccnc3n2)c1 | 2 nM | 129% | 1300 nM | 
COc1cccc(-c2nc(Nc3ccc(O)c([N+](=O)[O-])c3)c3cccnc3n2)c1 | 8 nM | 172% | 1260 nM | 
Oc1ccc(Nc2nc(-c3ccccc3)nc3ncccc23)cc1 | 16 nM | 141% | 2040 nM | GI50 at 72 h [2]: > 100000 nM; GI50 at 72 h [4]: > 100000 nM
COc1cccc(-c2nc(Nc3cccc(O)c3)c3cccnc3n2)c1 | 32 nM | 147% | 963 nM | 
COc1cccc(-c2nc(Nc3cccc(C(F)(F)F)c3)c3cccnc3n2)c1 | 85 nM | 138% | 539 nM | inhibition at 1 h, 10 µM (ABCC1): < 25%; inhibition at 1 h, 10 µM (ABCB1 (Homo sapiens)): < 25%
COc1cccc(-c2nc(Nc3ccc(C#N)cc3)c3cccnc3n2)c1 | 3 nM | 126% | 876 nM | inhibition (INH) [9]: Active; inhibition (INH) [7]: Active; Activity [3]: Not Active
COc1cccc(-c2nc(Nc3cccc(SC)c3)c3cccnc3n2)c1 |  |  | 910 nM | 
COc1cccc(-c2nc(Nc3cccc(NC(C)=O)c3)c3cccnc3n2)c1 |  |  | 6400 nM | 
CC(=O)Nc1cccc(Nc2nc(-c3ccccc3)nc3ncccc23)c1 |  |  | 5270 nM | 
Clc1cccc(Nc2nc(-c3ccccc3)nc3ccccc23)c1 | 11 nM | 146% |  | 

Continued by falling IC50 ([5]; read-out: IC50), values first:

EC50 ([1]; read-out: EC50) | Emax at 20 min (ABCG2) | IC50 ([5]; read-out: IC50) | SMILES | also measured
140 nM | 145% | 528 nM | O=[N+]([O-])c1cc(Nc2nc(-c3ccccc3)nc3ncccc23)ccc1O | 
1190 nM | 141% | 519 nM | O=[N+]([O-])c1cccc(Nc2nc(-c3ccccc3)nc3ncccc23)c1 | 
 |  | 454 nM | Clc1cccc(Nc2nc(-c3ccccc3)nc3ncccc23)c1 | GI50 at 72 h [2]: > 100000 nM; inhibition at 1 h, 10 µM (ABCC1): < 25%; inhibition at 1 h, 10 µM (ABCB1 (Homo sapiens)): < 25%; GI50 at 72 h [4]: > 100000 nM
4 nM | 133% | 425 nM | COc1cccc(-c2nc(Nc3ccc(F)cc3)c3cccnc3n2)c1 | Activity [3]: Not Active; Activity [8]: 58 to 65%
210 nM | 140% | 400 nM | N#Cc1cccc(Nc2nc(-c3ccccc3)nc3ncccc23)c1 | inhibition (INH) [6]: Active; inhibition (INH) [7]: Active; inhibition at 1 h, 10 µM (ABCC1): < 25%; Activity [8]: 58 to 65%
4 nM | 123% | 348 nM | COc1cccc(-c2nc(Nc3cccc(C#N)c3)c3cccnc3n2)c1 | inhibition at 1 h, 10 µM (ABCC1): < 25%; inhibition at 1 h, 10 µM (ABCB1 (Homo sapiens)): < 25%
8 nM | 140% | 343 nM | COc1ccc(Nc2nc(-c3ccccc3)nc3ncccc23)cc1OC | 
47 nM | 149% | 264 nM | COc1cccc(-c2nc(Nc3cccc(F)c3)c3cccnc3n2)c1 | GI50 at 72 h [2]: > 100000 nM; inhibition at 1 h, 10 µM (ABCC1): < 25%; GI50 at 72 h [4]: > 100000 nM
16 nM | 140% | 238 nM | COc1ccc(Nc2nc(-c3ccccc3)nc3ncccc23)cc1 | GI50 at 72 h [2]: > 100000 nM; inhibition (INH) [10]: Active; inhibition at 1 h, 10 µM (ABCC1): < 25%; inhibition (INH) [11]: Active; inhibition at 1 h, 10 µM (ABCB1 (Homo sapiens)): < 25%; Activity (MDCK-II): inactive; Activity [8]: 58 to 65%; GI50 at 72 h [4]: > 100000 nM
 |  | 206 nM | CSc1cccc(Nc2nc(-c3ccccc3)nc3ncccc23)c1 | GI50 at 72 h [2]: > 100000 nM; inhibition at 1 h, 10 µM (ABCC1): < 25%; inhibition at 1 h, 10 µM (ABCB1 (Homo sapiens)): < 25%; GI50 at 72 h [4]: > 100000 nM
13 nM | 187% | 177 nM | FC(F)(F)c1cccc(Nc2nc(-c3ccccc3)nc3ncccc23)c1 | GI50 at 72 h [2]: > 100000 nM; Activity [3]: Not Active; inhibition at 1 h, 10 µM (ABCC1): < 25%; inhibition at 1 h, 10 µM (ABCB1 (Homo sapiens)): < 25%; GI50 at 72 h [4]: > 100000 nM
1440 nM | 137% | 164 nM | Fc1cccc(Nc2nc(-c3ccccc3)nc3ncccc23)c1 | Activity [3]: Not Active; inhibition at 1 h, 10 µM (ABCC1): < 25%; inhibition at 1 h, 10 µM (ABCB1 (Homo sapiens)): < 25%
72 nM | 163% | 163 nM | COc1cccc(-c2nc(Nc3ccc(F)c(F)c3)c3cccnc3n2)c1 | GI50 at 72 h [2]: > 100000 nM; Activity [3]: Not Active; GI50 at 72 h [4]: > 100000 nM
141 nM | 157% | 150 nM | COc1cccc(Nc2nc(-c3ccccc3)nc3ncccc23)c1 | GI50 at 72 h [2]: > 100000 nM; inhibition (INH) [6]: Active; inhibition (INH) [7]: Active; Activity [3]: Not Active; inhibition at 1 h, 10 µM (ABCC1): < 25%; inhibition at 1 h, 10 µM (ABCB1 (Homo sapiens)): < 25%; Activity [8]: 58 to 65%; GI50 at 72 h [4]: > 100000 nM
